Experimental data published in patent US7781472B2, “Therapy for the treatment of disease” (TheraVida, Inc., priority 2005, dated 2010).

What was measured:
healthy human subject [1] = test: Stimulated saliva flow, case study of tolterodine and pilocarpine (Example 6); format: in vivo; conditions: 2 mg tolterodine tartrate alone
Experimental: In this study, the effect of tolterodine, pilocarpine, the combination of the two, and placebo was measured in separate, yet identical, studies in a single individual.
Effect of Tolterodine—A healthy human subject was given a 2 mg dose of tolterodine tartrate and the amount of salivation was measured with time over an 8 hour period. As shown in FIGS. 6 and 7 (♦, diamond), the amount of saliva flow collected over 2 minute periods decreased after dosing and the saliva flow remained low after 3 hrs.
Effect of Dose Ratio Between Tolterodine and Pilocarpine—In this experiment the results of two separate dose ratios between tolterodine and pilocarpine were compared with the results of placebo and administration of tolterodine alone. In one experiment, 2 mg of tolterodine was administered to a healthy individual and saliva flow was measured for 8 hours. Using a similar protocol, 2 mg of tolterodine was administered to a healthy individual at t=0, followed by 5 mg of pilocarpine at t=30 min. Similarly, 2 mg of tolterodine was administered to a healthy individual at t=0, followed by 10 mg of pilocarpine at t=30 min. Finally, the results were compared with the administration of placebo (FIG. 6 (●, closed circle)). […] Therefore, an effective dose ratio for the combination […] and pilocarpine is when 2 mg of tolterodine is combined with 10 mg of pilocarpine.
Effect of Combination of Tolterodine and Pilocarpine—In a separate human study, the combination of tolterodine and pilocarpine was administered to a healthy human subject. To the subject 2 mg of tolterodine followed by 10 mg of pilocarpine were administered with various delays in the administration of pilocarpine. Saliva flow was measured as before.
In one study, 10 mg of pilocarpine was administered to the subject 15 minutes after the administration of 2 mg of tolterodine. Saliva flow was measured as before. In another study, 10 mg of pilocarpine was administered to the subject 22 minutes after the administration of 2 mg of tolterodine. Saliva flow was measured as before. […] Saliva flow was measured as before.

healthy human subject [2] = test: Stimulated salivary flow, case study of oxybutynin and cevimeline alone and combined (Example 5); format: in vivo; conditions: for Amount of Saliva Collecetd over 2 min: cevimeline 30 mg and/or oxybutynin 5 mg oral, single subject, in g; for amount of saliva flow collected over 2 minute periods after dosing (in words) / time at which saliva flow reached the pre-dose level: single agent alone (oxybutynin HCl 5 mg; cevimeline 30 mg)
Experimental: In this study, the effect of oxybutynin, cevimeline, the combination of the two, and placebo was measured in separate studies in a single individual.
Effect of Oxybutynin—A healthy human subject was given a 5 mg dose of oxybutynin HCl and the amount of salivation was measured with time over an 8 hour period. As shown in FIG. 5 (●, circle), the amount of saliva flow collected over 2 minutes periods decreased after dosing and the saliva flow remained low after 3 hrs. The amount of saliva flow started increasing after 3 hrs and continued increasing reaching the pre-dose level after 8 hrs post-dosing. The data generated in this study is consistent with the literature data.
Effect of Cevimeline—In a separate human study the effect of administering 30 mg of cevimeline was evaluated in a healthy human subject to ensure that cevimeline indeed increases salivary gland flow. […] The decrease in saliva flow continued until it reached about the normal saliva flow and pre-dosing level after about 6 hrs.
Effect of Combination of Oxybutynin and Cevimeline—In a separate human study, the combination of oxybutynin and cevimeline was administered to a healthy human subject. To the subject 5 mg of oxybutynin followed simultaneously by 30 mg of cevimeline, with no time delay, was administered. Saliva flow was measured as before. Results are shown in FIG. 5 (▪, square), where the combination is referred to as THVD-102.

healthy human subject [3] = test: Stimulated saliva flow, case study of oxybutynin and pilocarpine alone and combined (Example 4); format: in vivo; conditions: FIG. 1; for amount of saliva flow collected over 2 minute periods after dosing (in words): single agent alone (oxybutynin HCl 5 mg; pilocarpine HCl), single healthy subject, 8 hour period; for time at which saliva flow reached the pre-dose level: single agent alone, post-dosing
Experimental: (§1) The following measurements are made just prior to and at frequent intervals for up to 6 hours post dose: • Salivary flow is determined by chewing Parafilm for 2 minutes • Dry mouth is determined by VAS • Urine volume/void and frequency over 6 hours post dose is measured • Blood samples are taken for pharmacokinetics at pre-dose, and at 0.5, 1, 2, 3, 4, and 6 hours post dose • Food and water intake are standardized over the 6 hour period
In this study, the effect of oxybutynin, pilocarpine, the combination of the two, and placebo was measured in six separate, yet identical, studies in a single individual.
Effect of Oxybutynin—A healthy human subject was given a 5 mg dose of oxybutynin HCl and the amount of salivation was measured with time over an 8 hour period. […]

[4] = Plasma concentration of oxybutynin after 5 mg oxybutynin alone or followed by 5 mg pilocarpine, four way crossover clinical trial; format: in vivo, human; conditions: 5 mg pilocarpine 30 min after 5 mg oxybutynin
Experimental: as §1
The study is a double blind, randomized, placebo-controlled, with 4 sequences (4 doses over 4 weeks) with the drugs being administered orally as a single dose. There is a One-week washout between study days. […]
Plasma Concentration of Oxybutynin—In a separate study, the plasma concentration of oxybutynin was measured in two groups of subjects: one group received 5 mg of oxybutynin alone and another group received 5 mg of oxybutynin followed by 5 mg pilocarpine after 30 min. The plasma concentrations were measured before the administration of oxybutynin and in hours 1, 2, 3, 4, and 6 after its administration. […]

[5] = Time −0.17 hr (pre-dose), text gives saliva flow in g/2 min

## Cc1ccc(O)c([C@H](CCN(C(C)C)C(C)C)c2ccccc2)c1 (stereo in doubt) [tolterodine, (R)-2-[3-[bis(1-methylethyl-amino]-1-phenylpropyl]-4-methylphenol [R—(R*,R*)]-2,3-dihydroxybutanedionic acid]
Healthy human subject [1]
  time after which saliva flow started increasing again: about 4 hrs
Healthy human subject [1]; 8 hour period, FIGS. 6 and 7
  amount of saliva flow collected over 2 minute periods after dosing (in words): decreased
Healthy human subject [1]; not completely reached at end of observation
  time at which saliva flow reached the pre-dose levels: > 8 h

## CC1OC2(CS1)CN1CCC2CC1 (stereo not shown) [Cevimeline, cevimeline]
Healthy human subject [2]; 30 mg cevimeline alone, FIG. 5
  time of peak saliva flow: close to two hours
Healthy human subject [2]; Time 0 hr
  Amount of Saliva Collecetd over 2 min: 2.6273
Healthy human subject [2]; Time 0.5 hr
  Amount of Saliva Collecetd over 2 min: 2.7791
Healthy human subject [2]; Time 1 hr
  Amount of Saliva Collecetd over 2 min: 4.1213
Healthy human subject [2]; Time 1.5 hr
  Amount of Saliva Collecetd over 2 min: 4.6029
Healthy human subject [2]; Time 2 hr
  Amount of Saliva Collecetd over 2 min: 3.7314
Healthy human subject [2]; Time 2.5 hr
  Amount of Saliva Collecetd over 2 min: 3.7641
Healthy human subject [2]; Time 3 hr
  Amount of Saliva Collecetd over 2 min: 3.5888
Healthy human subject [2]; Time 3.5 hr
  Amount of Saliva Collecetd over 2 min: 3.9316
Healthy human subject [2]; Time 4 hr
  Amount of Saliva Collecetd over 2 min: 3.5914
Healthy human subject [2]; Time 5 hr
  Amount of Saliva Collecetd over 2 min: 2.6099
Healthy human subject [2]; Time 6 hr
  Amount of Saliva Collecetd over 2 min: 2.205
Healthy human subject [2]; Time 8 hr
  Amount of Saliva Collecetd over 2 min: 1.7973
Healthy human subject [2]; [5]
  Amount of Saliva Collecetd over 2 min: 2.4808
Healthy human subject [2]; FIG. 5
  amount of saliva flow collected over 2 minute periods after dosing (in words): increased sharply
  time at which saliva flow reached the pre-dose level: about 6 hrs

## CCN(CC)CC#CCOC(=O)C(O)(c1ccccc1)C1CCCCC1 (stereo not shown) [Oxybutynin, oxybutynin]
Healthy human subject [2]; 5 mg oxybutynin HCl alone, FIG. 5
  time after which saliva flow started increasing again: 3 h
Healthy human subject [2]; Time 0 hr
  Amount of Saliva Collecetd over 2 min: 2.4536
Healthy human subject [2]; Time 0.5 hr
  Amount of Saliva Collecetd over 2 min: 1.8558
Healthy human subject [2]; Time 1 hr
  Amount of Saliva Collecetd over 2 min: 1.2308
Healthy human subject [2]; Time 1.5 hr
  Amount of Saliva Collecetd over 2 min: 1.2326
Healthy human subject [2]; Time 2 hr
  Amount of Saliva Collecetd over 2 min: 1.3548
Healthy human subject [2]; Time 3 hr
  Amount of Saliva Collecetd over 2 min: 1.1829
Healthy human subject [2]; Time 4 hr
  Amount of Saliva Collecetd over 2 min: 1.5868
Healthy human subject [2]; Time 5 hr
  Amount of Saliva Collecetd over 2 min: 2.1475
Healthy human subject [2]; Time 6 hr
  Amount of Saliva Collecetd over 2 min: 2.0096
Healthy human subject [2]; Time 8 hr
  Amount of Saliva Collecetd over 2 min: 2.3028
Healthy human subject [2]; [5]
  Amount of Saliva Collecetd over 2 min: 2.2208
Healthy human subject [2]; FIG. 5
  amount of saliva flow collected over 2 minute periods after dosing (in words): decreased
  time at which saliva flow reached the pre-dose level: 8 h
Healthy human subject [3]; 5 mg oxybutynin HCl alone
  time after which saliva flow started increasing again: 3 h
Healthy human subject [3]
  amount of saliva flow collected over 2 minute periods after dosing (in words): decreased
  time at which saliva flow reached the pre-dose level: 8 h

## CC[C@@H]1C(=O)OC[C@@H]1Cc1cncn1C [pilocarpine]
[4]
  effect of pilocarpine on the plasma concentration of oxybutynin: does not affect the plasma concentration of oxybutynin at all
Healthy human subject [3]; pilocarpine HCl alone
  time of peak saliva flow: half an hour
Healthy human subject [3]
  amount of saliva flow collected over 2 minute periods after dosing (in words): increased sharply
  time at which saliva flow reached the pre-dose level: about 5 hrs
